Results on 10 compounds are retold here after PubChem BioAssay (NCI).

Assay in all cases: growth of human tumour cells (NCI), 48 h
For experiment [1], the system named is CAKI-1 renal.
The test system of experiment [2] is CCRF-CEM leukemia.
Experiment [3] has as its system COLO 205 colon.
The test system of experiment [4] is K-562 leukemia.
The test system of experiment [5] is MDA-MB-231 breast.
Experiment [6] has as its system NCI/ADR-RES ovarian.
Experiment [7] deals with OVCAR-4 ovarian.
Experiment [8] concerns SF-295 CNS.
The subject of experiment [9] is SW-620 colon.
In experiment [10] the test system is U251 CNS.

Each structure is given as a SMILES string. Where “and” joins values, the source holds several entries; their conditions need not be identical. Equal entries are not always repeated.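 Cells were grown in 96-well plates and exposed to each compound for 48 hours at five concentrations; endpoints were interpolated linearly between bracketing concentrations, or set to the highest concentration if not reached. GI50: concentration for 50% inhibition of growth. TGI: total growth inhibition.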

Take `CN(CCOc1ccc(NS(C)(=O)=O)cc1)CCc1ccc(NS(C)(=O)=O)cc1`: the GI50 in experiment [1], in experiment [2], in experiment [3], in experiment [4], in experiment [5] and in experiment [6] was more than 100 µM in each case. The GI50 in experiment [7], in experiment [8], in [9] and in [10] was more than 100 µM each time. Also, the TGI in [1], in [2], in [3], in experiment [4], in experiment [5] and in experiment [6] was more than 100 µM each time. Also, the TGI in experiment [7], in [8], in [9] and in experiment [10] was more than 100 µM each time.

As to `Cc1nc(C(=O)OCc2ccccc2)cc(OCc2ccccc2)c1C`, the GI50 in experiment [1] was 32.6 µM; in experiment [2] it was 20.5 µM; in [3], 22.6 µM; in experiment [4] it was 8.8 µM; in experiment [5] it was 14.6 µM; in [6] it was 14.1 µM. Moreover, the GI50 is 11.8 µM in [7], 19.7 µM in [8], 17.8 µM in experiment [9] and 17.6 µM in [10]. Besides, the TGI in [1] is more than 100 µM; in [2] it was 62.1 µM; in experiment [3], 65.1 µM; in experiment [4] it was 36.8 µM; in experiment [5], 34.9 µM; in experiment [6] it was 37.4 µM. Also, the TGI in experiment [7] stood at 33.6 µM; in [8] it was 46.8 µM; in experiment [9] it was 44.2 µM; in experiment [10], 48.2 µM.

Regarding `CCOC(=O)C(Cc1cc(OC)c(CC(C(=O)OCC)C(=O)OCC)cc1OC)C(=O)OCC`, the TGI in experiment [1], in experiment [2], in [3], in experiment [4], in experiment [5] and in [6] was more than 100 µM each time. Further, the TGI in experiment [7], in experiment [8], in experiment [9] and in experiment [10] was more than 100 µM each time.

As to `COc1cc(C=NCC(=O)CSC(c2ccccc2)c2ccccc2)ccc1O`, the GI50 was 16.6 µM in [1]; 8.42 µM in experiment [2]; 10.6 µM in [3]; 4.73 µM in experiment [4]; 12.8 µM in [5]; 7.78 µM in [6]. For the same compound, the GI50 in experiment [7] is 5.32 µM; in experiment [8], 14.6 µM; in [9], 15.5 µM; in [10], 14 µM. The TGI was determined as 43.2 µM in experiment [1]; 50.9 µM in experiment [2]; 22.4 µM in experiment [3]; 23.3 µM in experiment [4]; 26.7 µM in [5]; 29.2 µM in experiment [6]. In addition, the TGI came out at 23 µM in [7], 46.9 µM in experiment [8], 31.4 µM in experiment [9] and 26.9 µM in experiment [10].

Regarding `O=C1C=C(NCCc2ccccc2)c2ccccc2C1=O`, the TGI in experiment [1] was 21.8 µM; in experiment [2], 67.9 µM; in experiment [3] it was 3.6 µM; in experiment [4], 20.4 µM; in [5], 42.8 µM; in [6], 23 µM. Further, the TGI in experiment [7] worked out at 13.4 µM; in experiment [8], 4.76 µM; in experiment [9], 4.31 µM; in [10], 16.1 µM.

For the compound `Cc1c(-c2ccc(-c3ccccc3F)cc2)nc2ccc(F)cc2c1C(=O)O`, the GI50 in [1] was 3.34 µM; in experiment [2], 0.0742 µM and 0.557 µM; in experiment [3], 17.4 µM and 3.81 µM; in experiment [5], 89.8 µM and 30.5 µM; in experiment [6], 8.96 µM and 17.2 µM; in experiment [7] it was 41 µM and 81.6 µM. Also, the GI50 in [8] is 0.163 µM and 1.37 µM; in [9], 0.488 µM and 1.16 µM; in experiment [10] it was 0.0723 µM and 0.5 µM. Further, the TGI in experiment [1] is 105 µM and 109 µM; in [2] it was 190 µM and 684 µM; in experiment [3] it was 97.7 µM and 234 µM; in experiment [4], 211 µM and 401 µM; in experiment [5], 146 µM and 250 µM; in [6], 170 µM and 377 µM. For the same compound, the TGI is 88.7 µM and 524 µM in experiment [7]; 43.6 µM and 48.6 µM and 210 µM in experiment [8]; 139 µM and 577 µM in [9]; 104 µM and 259 µM in experiment [10].

`Cc1cc(C)c(-c2c(O)c(Br)c(-c3c(C)cc(C)c(Br)c3C)c(O)c2Br)c(C)c1Br`: the GI50 in [1] was 1.66 µM; in experiment [2], 4.06 µM; in experiment [3], 1.73 µM; in [4] it was 2.65 µM; in experiment [5] it was 1.65 µM; in experiment [6], 2.88 µM. In addition, the GI50 in [7] is 2.56 µM; in [8], 1.83 µM; in [9], 2.94 µM; in experiment [10], 2.28 µM. Also, the TGI in experiment [1] is 5.99 µM; in experiment [2], 20.2 µM; in [3], 3.54 µM; in [4] it was 13.9 µM; in [5], 4.42 µM; in experiment [6] it was 10.7 µM. The TGI was 9.92 µM in experiment [7], 5.01 µM in [8], 12 µM in experiment [9] and 8.54 µM in experiment [10].

As for `O=C(O)CCN1C(=S)CSC1=S`, the TGI in experiment [1], in [2], in experiment [3], in experiment [4], in experiment [5] and in experiment [6] was more than 100 µM in each case. Moreover, the TGI in [7], in experiment [8], in experiment [9] and in [10] was more than 100 µM in each case.

Consider `COc1ccc(CN2c3ccccc3Sc3ccccc32)cc1O`, for which the GI50 in experiment [1] is 0.472 µM; in experiment [2], 0.411 µM; in experiment [3], 0.789 µM; in [4], 0.365 µM; in [5] it was 0.668 µM; in experiment [6], 0.291 µM. Also, the GI50 is 0.726 µM in experiment [7], 0.225 µM in [8], 0.504 µM in [9] and 0.427 µM in experiment [10]. Moreover, the TGI in [1] is 17.7 µM; in experiment [2] it was 22.4 µM; in [3] it was 4.6 µM; in experiment [4], 26.6 µM; in experiment [5] it was 18.1 µM; in experiment [6] it was 0.863 µM. In addition, the TGI in experiment [7] is 19.3 µM; in experiment [8], 0.646 µM; in experiment [9], 17.7 µM; in experiment [10], 14.5 µM.

As for `COc1ccc(C(=O)c2ccccc2)c(O)c1`, the GI50 in [1] is 67.4 µM; in [2] it was more than 100 µM; in [3] it was more than 100 µM; in [4], 91 µM; in experiment [5] it was more than 100 µM; in [6] it was 53.1 µM. For the same compound, the GI50 in [7] was more than 100 µM; in experiment [8] it was 36 µM; in experiment [9], more than 100 µM; in [10], 66.3 µM. Also, the TGI in [1], in experiment [2], in [3], in experiment [4], in [5] and in [6] was more than 100 µM in each case. The TGI in experiment [7], in experiment [8], in experiment [9] and in experiment [10] was more than 100 µM throughout.
